Reference: patent publication US20240109843A1, “BENZALDEHYDE COMPOUNDS WITH DIRECT POLYMER DESTABILIZING EFFECTS TO TREAT SICKLE CELL DISEASE” (VIRGINIA COMMONWEALTH UNIVERSITY, priority 2018, published 2024)

Assays:
[1] = ADME / bioavailability assessment; conditions: in vivo
[2] = system: RBCs from donors with homozygous SCD; assay: Oxygen-independent sickle inhibition in SS blood suspensions under anoxia (100% nitrogen); assay type: cell-based, human; conditions: anoxia
Procedure: To establish oxygen-independent sickle inhibition, the incubation chamber was subsequently opened and exposed to room air for 15 minutes to ensure complete re-oxygenation and reversal of the sickled cells to normal round cells. Reversal was confirmed by microscopy. The incubation chamber was then closed, and the assay was repeated with incubation in 100% nitrogen gas for 1 hour (for screening), or up to 2.5 h (for time-course studies), with collection and fixation of blood aliquots at defined intervals. Aliquot samples were again subjected to microscopic morphological analysis of bright field images to identify the proportion of sickled and non-sickled cells, and sickle inhibition calculated.

intracellular Hb = molecular target: T1, intracellular Hb (Mus musculus, UniProt P01942); assay: In vivo modification of intracellular Hb in wild-type mice; design: species or system C57BL/6 mice; conditions: IP 150 mg/kg, 30% PEG300, 6 h
T1 construct: from tissue; host or cells: blood (red cell lysates) of dosed C57BL/6 mice
Procedure: We tested in vivo pharmacologic (pharmacodynamics) effects of select PP compounds in C57BL/6 mice. The animals were treated with a single intraperitoneal (IP) (150 mg/kg body weight) dose of PP6, PP10, PP14, and TD7, which were formulated with 30% PEG300. Blood samples were obtained prior to treatment (0) and 1, 3 and 6 h post-treatment, via submandibular bleeding, and subjected to hemolysis using standard methods. Clarified lysates, free of cell debris and red blood cell ghosts were analyzed by cation-exchange HPLC to determine the levels of drug-modified hemoglobin (adducts); and to conduct oxygen equilibrium studies to determine degrees of shift in p50 values using methodologies described earlier for in vitro studies on human samples. In a subsequent follow-up experiment, a new excipient obtained from Catalent Pharma Solutions was also used to formulate PP14 and used for a single intraperitoneal (IP) and oral (150 mg/kg body weight) dose. Blood samples were obtained prior to treatment (0) and 1, 3 or 5 h post-treatment, via submandibular bleeding, and used to determine the levels of drug-modified hemoglobin (adducts); and to conduct oxygen equilibrium studies to determine degrees of shift in p50 values as described above.

Hb [3] = molecular target: T2, Hb (Homo sapiens, UniProt P69905); assay: Drug partitioning studies, fixed and unfixed Hb adducts in non-sickling AA blood; assay type: cell-based; design: Hemoglobin modification, studies using non-sickling AA blood; from tissue; host or cells: non-sickling (AA) human blood, red blood cells; conditions: 2 mM
Summary of the method: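 Non-sickling blood was incubated with test molecules and lysed either in water (unfixed) or in 50 mM sodium borohydride (fixed). Hb adducts were quantified by cation-exchange HPLC as a fraction of total Hb. The partitioning ratio is fixed over unfixed modification and reflects intracellular Hb binding after RBC membrane permeation.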
Target sequence in this assay (P69905 2-142 limits assumed): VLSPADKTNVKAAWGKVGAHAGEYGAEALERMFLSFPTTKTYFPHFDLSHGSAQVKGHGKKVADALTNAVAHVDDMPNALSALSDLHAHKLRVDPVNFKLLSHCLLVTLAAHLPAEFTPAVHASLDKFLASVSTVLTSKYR
Target sequence in this assay (P68871 2-147 partner limits assumed): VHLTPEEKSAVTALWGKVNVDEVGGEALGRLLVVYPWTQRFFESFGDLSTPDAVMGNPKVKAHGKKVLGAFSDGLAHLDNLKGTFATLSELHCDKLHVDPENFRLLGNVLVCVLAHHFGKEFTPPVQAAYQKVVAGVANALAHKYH

Hb [4] = molecular target: T2, Hb; assay: Oxygen equilibrium curve (OEC) studies with normal whole blood; assay type: cell-based; design: Hemoglobin modification, studies using non-sickling AA blood; from tissue; host or cells: non-sickling (AA) human blood, red blood cells; conditions: normal whole blood, 0.5, 1, 2 mM
Procedure: Oxygen equilibrium curve (OEC) studies to determine the effect of the compounds on Hb affinity for oxygen were conducted following standard procedure. Whole blood (30% hematocrit) was incubated in the absence or presence of compounds (0.5 mM, 1.0 mM and 2.0 mM) solubilized in DMSO. […] After equilibration, the sample was removed via syringe and aspirated into an ABL 700 series table top automated blood gas analyzer (Radiometer America, Inc., Westlake, OH) to determine total hemoglobin (tHb), hematocrit (Hct), pH, pCO2, partial pressure of oxygen (pO2), and the Hb-O2 saturation (sO2) values. The measured values of pO2 and sO2 at each oxygen saturation level were then subjected to nonlinear regression analysis using the software Scientist (Micromath, Salt Lake City UT) with the following equation: […]
Aromatic aldehydes are known to prevent hypoxia-induced Hb S polymerization by increasing the Hb affinity for oxygen. We therefore tested the PP compounds in a dose-dependent manner (0.5, 1, 2 mM) for their effect on Hb oxygen binding property. […] These findings confirmed that the potent in vitro activity previously seen in TD7 was at least conserved in the novel PP compounds.
Target sequence in this assay (P69905 2-142 limits assumed): as the sequence (P69905 2-142 limits assumed) above
Target sequence in this assay (P68871 2-147 partner limits assumed): as the sequence (P68871 2-147 partner limits assumed) above

Hb [5] = molecular target: T2, Hb; assay: Time-dependent Hb-compound adduct formation (Hb modification) in normal whole blood; assay type: binding; design: Hemoglobin modification, studies using non-sickling AA blood; from tissue; host or cells: non-sickling (AA) human blood, red blood cells; conditions: 2 mM, normal adult blood, hematocrit 30%, 37° C.
Target sequence in this assay (P69905 2-142 limits assumed): as the sequence (P69905 2-142 limits assumed) above
Target sequence in this assay (P68871 2-147 partner limits assumed): as the sequence (P68871 2-147 partner limits assumed) above

Hb [6] = molecular target: T2, Hb; assay: Hb modification (drug-adduct formation) in SS blood suspensions by cation-exchange HPLC; assay type: binding; design: Blood suspensions from subjects with homozygous SCD; from tissue; host or cells: blood suspensions (20% hematocrit) from donors with homozygous SCD; lysates of the treated red cells; conditions: 2 mM, 4 biological replicates
Summary of the method: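 Homozygous SCD blood at 20% hematocrit in Hemox buffer with glucose and BSA was incubated with compound (0-2 mM) 1 h at 37° C in air, then up to 2 h hypoxia (2.5% O2). Lysates, with or without 50 mM sodium borohydride reduction, were analysed by weak cation-exchange HPLC at A410 nm for Hb-drug adducts.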
Target sequence in this assay (P69905 2-142): as the sequence (P69905 2-142 limits assumed) above
Target sequence in this assay (P68871 with tags, fused parts or gaps E7V partner): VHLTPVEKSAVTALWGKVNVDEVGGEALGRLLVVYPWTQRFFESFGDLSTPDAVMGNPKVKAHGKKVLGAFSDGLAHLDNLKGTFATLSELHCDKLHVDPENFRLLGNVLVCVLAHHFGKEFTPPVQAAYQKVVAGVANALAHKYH

sickle red blood cells = assay: Antisickling study with human sickle blood under 2.5% oxygen; assay type: cell-based; conditions: Homo sapiens, Erythrocyte, sickle RBCs, 2.5% oxygen, read-out: sickling inhibition
Procedure: Blood suspensions from subjects with homozygous SCD (resuspended in Hemox™ buffer to a final hematocrit 20%) were incubated under air in the absence or presence of the compounds (0.5 mM, 1 mM and 2 mM) at 37° C. for 1 h to ensure that binding had attained equilibrium. The suspensions were then incubated under hypoxic conditions (2.5% oxygen/97.5% nitrogen) at 37° C. for 1 h. Aliquot samples were fixed with 2% glutaraldehyde solution without exposure to air, and then subjected to microscopic morphological analysis of bright field images (at 40× magnification) of single layer cells on an Olympus BX40 microscope fitted with an Infinity Lite B camera (Olympus), and the coupled Image Capture software. The residual samples were washed in phosphate-buffer saline, and hemolyzed in hypotonic lysis buffer for subsequent Hb-modification and oxygen equilibrium analyses.
The studies described above were conducted using normal whole blood. Next, we investigated whether the improvement in Hb oxygen affinity and the compounds sustained activity also translated to similar effects in SS blood from SCD patients. […] At 1 mM, PP8 and PP9 inhibited nearly 100% of sickling, while PP2, PP6, PP14 inhibited sickling by more than 70%. […] It is clear that the modifications of the present compounds has led to significant improvement in antisickling activity.

T1 sequence (P01942 2-142 limits assumed): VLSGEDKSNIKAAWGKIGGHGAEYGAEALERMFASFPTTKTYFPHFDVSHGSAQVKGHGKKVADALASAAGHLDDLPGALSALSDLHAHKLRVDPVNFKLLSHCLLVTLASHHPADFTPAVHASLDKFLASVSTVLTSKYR
T1 sequence (P02088 2-147 partner limits assumed): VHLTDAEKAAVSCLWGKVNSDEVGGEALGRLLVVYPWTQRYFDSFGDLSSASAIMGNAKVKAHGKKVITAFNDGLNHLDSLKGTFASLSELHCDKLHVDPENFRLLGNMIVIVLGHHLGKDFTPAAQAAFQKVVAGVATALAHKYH

Structure (SMILES): O=Cc1c(O)cccc1OCc1ccccc1 [Reference A, 2-(benzyloxy)-6-hydroxybenzaldehyde, reference compound]
- bioavailability [1]: not bioavailable
- polymer destabilizing effect / sickle inhibition in anoxia (in words) [2]: exhibits potent polymer destabilizing effects

Structure (SMILES): COc1ccc(OCc2cccc(CO)n2)c(C=O)c1 [TD-7, reference compound]
- modified Hb (intracellular Hb): 1.5±0.3%
- Fixed Adducts (%) (Hb [3]; 6 biological replicates): 80.9 ± 2.5%
- Unfixed Adduct (%) (Hb [3]; 6 biological replicates): 73.5 ± 1.5%
- Partitioning Ratio (%) (Hb [3]; fixed relative to unfixed adducts): 103.7 ± 7.5%
- effect on Hb oxygen binding property (OEC) (Hb [4]): relatively similar potency as most of the best PP compounds
- loss of Hb modification activity at 24 hours (Hb [5]): 45%
- Hb Modification (%) (Hb [6]): 72.5%
- inhibition at 500 µM (sickle red blood cells; 0.5 mM): 26%
- inhibition at 1000 µM (sickle red blood cells; 1 mM): 47%
